Data from patent US5883097A, “Soluble azole antifungal salt” (Schering Corporation, priority 1998, dated 1999).
Where a name gives a salt, the structure may show the parent alone.

Key:
[1] = Serum levels following oral dosing in mice; conditions: methyl cellulose formulation
[2] = Serum levels following oral dosing in rats; conditions: methyl cellulose formulation
[3] = Serum levels following oral dosing in dogs; conditions: methyl cellulose formulation
[4] = Serum levels following oral dosing in monkeys; conditions: methyl cellulose formulation
[5] = Serum half life and tissue distribution following O.D. dosing
Aspergillus = conditions: SDB, geometric mean MIC and MFC
[6] = system: cytochrome P-450 liver drug metabolizing enzymes; assay: Induction of cytochrome P-450 liver drug metabolizing enzymes, in vivo rat model; conditions: oral administration
Solubility in water = assay type: physicochemical
Method: (§1) Only 1-2 mg of the hydrochloride salt dissolves in 1 mL of water, and unacceptably large volumes of water would be required for delivery of an effective dose. Furthermore, only in an aqueous hydrochloric acid solution at the physiologically unacceptable pH of 1-1.5 does enough of the hydrochloride acid addition salt of the compound of formula I dissolve to provide a suitably concentrated solution useful for intravenous use.

[7] = Solubility in aqueous hydrochloric acid solution; assay type: physicochemical; conditions: only in an aqueous hydrochloric acid solution; physiologically unacceptable pH
Method: as §1

[8] = Solubility in aqueous lactic acid solution / pharmaceutically acceptable carriers; assay type: physicochemical
[9] = In vivo conversion into the alcohol of formula II

CCC(C(C)O)n1ncn(-c2ccc(N3CCN(c4ccc(OCC5COC(Cn6cncn6)(c6ccc(F)cc6F)C5)cc4)CC3)cc2)c1=O [compound of formula II, -(2 R-cis)-4-[4-[4-[4-[[-5-(2,4-Difluorophenyl)-tetrahydro-5-(1 H-1,2,4-triazol-1-ylmethyl)furan-3-yl]methoxy]phenyl]-1-piperazinyl]phenyl]-2-4-dihydro-2-[(1 S)-ethyl-2(S)-hydroxypropyl]-3 H-1,2,4-triazol-3-one]
serum levels compared to azoles of similar structure, mice [1]: consistently higher serum levels
serum levels compared to azoles of similar structure, rats [2]: consistently higher serum levels
serum levels compared to azoles of similar structure, dogs [3]: consistently higher serum levels
serum levels compared to azoles of similar structure, monkeys [4]: consistently higher serum levels
serum half lives [5]: very long serum half lives
tissue distribution [5]: good tissue distribution
in vitro antifungal activity against 37 species of Aspergillus compared to fluconazole (Aspergillus): superior antifungal in vitro activity
induction of cytochrome P-450 liver drug metabolizing enzymes [6]: not an inducer

CCC(C(C)OC(=O)CN)n1ncn(-c2ccc(N3CCN(c4ccc(OCC5COC(Cn6cncn6)(c6ccc(F)cc6F)C5)cc4)CC3)cc2)c1=O (single isomer, unassigned; (-)) [Hydrochloride]
solubility in water (Solubility in water; Hydrochloride): sparingly soluble
solubility (Solubility in water; read-out: amount of salt dissolving in 1 mL of water): 1000 to 2000 µg/mL
pH of aqueous hydrochloric acid at which enough salt dissolves to provide a suitably concentrated solution for intravenous use [7]: 1-1.5

CCC(C(C)OC(=O)CN)n1ncn(-c2ccc(N3CCN(c4ccc(OCC5COC(Cn6cncn6)(c6ccc(F)cc6F)C5)cc4)CC3)cc2)c1=O (single isomer, unassigned; (-))
solubility in water (Solubility in water; listed as lactic acid addition salt): water soluble
solubility in pharmaceutically acceptable carriers, especially aqueous lactic acid solutions ([8]; aqueous lactic acid solutions): surprisingly soluble
solubility in aqueous lactic acid solution at physiologically acceptable pH ([8]; pH of at least about 3 to 3.5): soluble
in vivo conversion into the corresponding alcohol of formula II [9]: readily convertible in vivo
